Assay results reported in patent publication US11835522B2, “Sensors for detecting and imaging of cancer metastasis” (Massachusetts Institute of Technology, priority 2019, dated 2023).

Legend:
[1] = system: CRC lung metastases; experiment: 5-FU treatment monitored with PRISM, CRC lung metastasis model; assay type: in vivo, mice
Source text: (§1) After validation of the efficacy of tailored PRISM nanoparticles, these sensors were applied to study how proteolytic activities correlate with changes in the progression of disease over time and in response to drug treatment. In addition, molecular imaging was safely performed for any lesion for multiple times, providing information related to regional heterogeneity in a given tumor. To evaluate PRISM in monitoring treatment responses, mice were grouped into two categories (n=5 each) to allow monitoring the effect of standard chemotherapy 5-FU treatment: one group received drug (15 mg/kg) by i.p. injection (daily injection for 4 days and once every other day till end of study); and the second group received vehicle as control. To monitor therapeutic responses in treating metastases, PRISM was intravenously injected in each group of mice. After 1 hr of sensor injection, urinary reporter level was assayed to track local proteolytic activity, reflecting tumor invasion capacity. At 6 hrs post-injection, mice were scanned using a small animal PET/CT imager for longitudinal assessment of the tumor progression. […] Real-time images were analyzed and standard uptake value of radioactive reporters were quantified using VivoQuant software.
To monitor therapeutic responses when metastases in the CRC lung metastasis model were treated, PRISM was again intravenously injected in two group of mice on a weekly basis. One hour following sensor injection, urinary reporter level was read to track the local proteolytic activity. […] 6 hours after sensor injection, PET/CT were applied to monitor tumor growth or regression, which provides a longitudinal, noninvasive assessment of the efficacy of anti-tumor drug treatment. […] Consistently, the relative lung/liver ratio of PET/CT signal in the cohort that received no treatment was over 3 times higher than that of the cohort treated with chemotherapy (n=5) (FIG. 6G).

[2] = system: CRC liver metastases; experiment: 5-FU treatment monitored with PRISM, CRC liver metastasis model; assay type: in vivo, mice; details: 5-FU 15 mg/kg i.p.
Source text: as §1

**Q.** With `O=c1[nH]cc(F)c(=O)[nH]1` [5-FU] as the compound, how does the “urinary reporter level vs untreated control group” value ([1]; 5-FU treated mice, urine one hour after PRISM injection) read?
**A.** Significantly reduced urinary reporter levels

**Q.** What about the “tumor growth vs untreated controls” value ([1]; PET/CT 6 hours after sensor injection) of the same compound?
**A.** slower tumor growth

**Q.** And the “relative lung/liver ratio of PET/CT signal, untreated cohort relative to 5-FU treated cohort” value ([1]; n=5, FIG. 6G)?
**A.** over 3 times

**Q.** What about the “tumor progression / tumor growth vs untreated” value ([2]; started two weeks after tumor inoculation, PET/CT) of the same compound?
**A.** significantly inhibited tumor progression

**Q.** And the “urinary reporter level vs non-treated cohort” value ([2]; urine 1 hr after PRISM injection)?
**A.** decreased urinary reporter level
